This note sets out measurements from patent US8143222B2, “Modular platform for targeted therapeutic delivery” (Washington University, priority 2007, dated 2012).

Assay [1] deals with human pancreatic cancer cell lines. As to the kind of experiment: S2-BH3 apoptosis in human pancreatic cancer cell lines. Type of assay: cell-based. Conditions: up to 10 μM. The procedure:
(§1) Tumor Cells are seeded at a density of 0.2 to 0.5×10^6 cells per mL in 12-well plates and incubated at 37° C. for at least 24 hours (murine cancer cells) or 48 hours (Human cancer cells). After incubation, S2-fusion protein is added to the cell culture medium. The cells are then incubated for 18 hours (active caspase 3) or 24 hours (TUNEL) at 37° C. in humidified 5% CO2. Apoptosis is detected by FACS analysis after staining cells for active caspase-3 (Cell Signaling, Boston, Mass.) or with the APO-BRDU kit (Phenix Flow Systems, San Diego, Calif.). Briefly, cells are washed with PBS, treated with trypsin-EDTA to remove adhesion molecules, and washed again. After centrifugation at 1,200 rpm for 10 min, cells are fixed with 1% paraformaldehyde and washed with PBS. After centrifugation at 1,800 rpm for 10 min, cells are fixed with 90% methanol at −20° C. and washed with PBS. Each pellet is resuspended in 1:100 anti-active caspase-3 antibody (1 μg/ml caspase 3, PBS with 5% FBS) or Br-duTP with TdT, and incubated overnight at 4° C. […] Cell fluorescence signals is determined using a FACScan flow cytometer (BD Biosciences) and analyzed with CellQuest software (BD Biosciences) to measure the percentage of apoptotic cells. […]

The test system of assay [2] is murine pancreatic cancer cell lines. As to the kind of experiment: S2-BH3 apoptosis in murine pancreatic cancer cell lines. It is filed as cell-based. Conditions: up to 10 μM. The procedure:
as §1

Assay [3] has as its system established murine pancreas cancers. As to the kind of experiment: systemic (intraperitoneal) S2-BH3 in mice with established pancreas cancers. Conditions: seven intraperitoneal doses over 14 days.
Protocol: The intradermal location is used to facilitate accurate tumor measurements. Tumor diameter is measured with calipers every two days in two dimensions and the data are recorded. Mice are euthanized when the tumors reach 2 cm or ulcerate. In the subcutaneous model, 100,000 Panc-02 cells are utilized.
In these experiments, we have completed the first in vivo administration of our novel therapeutic.
Assay [4] concerns human pancreas cancer cells. As to the kind of experiment: apoptosis screen of TAT-CTMP fusion peptides, human cells. Type of assay: cell-based. The procedure: as §1
For the next assay, the system named is AsPC-1. As to the kind of experiment: Tat-CTMP with gemcitabine, % active caspase-3 by flow cytometry. It is filed as cell-based, human. As to conditions: in the presence of gemcitabine (30 nM); 24 hours. The procedure: In these experiments, a combination of gemcitabine, a commonly-used chemotherapeutic drug for pancreas cancer and Tat-CTMP were tested in our in vitro model. In this study, two human pancreas adenocarcinoma cell lines (Panc-1 and AsPC-1) were treated with TAT-CTMP and TAT-CTMP in the presence and absence of gemcitabine (30 nM). […] Cells were subsequently harvested and % active caspase-3 was assessed by flow cytometry. Each experimental group represents an n=3. […] This experiment was repeated twice with multiple murine and human lines with similar results. (B and C) Antitumor effects of CTMP4 are the result of inhibition of Akt3 and its downstream effectors. […] Samples were treated for 1 hour prior to preparation of cell lysates. Immunoblots were subsequently prepared and stained with (B) anti-total AKT and phospho-AKT ([…]) and (C) anti-total GSK-3β and phospho GSK-3β.
In general terms: Flow cytometry measures light scatter and fluorescence of single cells or particles in a stream.

Assay [5] deals with murine pancreas cancer cells. As to the kind of experiment: apoptosis screen of TAT-CTMP fusion peptides, murine cells. Type of assay: cell-based. The procedure:
as §1

The subject of another assay is pancreas cancer cells. As to the kind of experiment: TAT-CTMP with radiation, apoptosis. Type of assay: cell-based. As to conditions: cotreatment with radiation. The source says:
CTMP binds to the C-terminal regulatory domain of Akt, inhibiting phosphorylation of Ser^473 and activation of Akt, and thereby promotes apoptosis. CTMP is highly conserved between mouse and human (85% of the residues are identical or conservative replacements) and has two functional domains, a highly structured N-terminal domain and a C-terminal thioesterase domain. Within the N-terminal domain there are four peptides that have structural elements that meet the criteria described by Maira et al (Science 294: 374-380, 2001) as mediating the interaction with Akt. In these experiments, we synthesized TAT-fusion peptides of each of these four domains and screened them for their ability to induce apoptosis in pancreas cancer cells. […] In FIG. 4, the left panel (A), presents a helical wheel diagram (Schiffer, M. and Edmundson, A. B., Biophys. J. 7, 121-135, 1967) of the active domain of CTMP. […] Furthermore, cotreatment with TAT-CTMP4 and radiation results in increased apoptosis (FIG. 4, right panel).

For the next assay, the system named is Akt. As to the kind of experiment: Western blot of phospho-Akt (Ser-473) in cell lysates. Type of assay: cell-based, human. Conditions: Panc-1; one hour after treatment; wortmannin 1 μM, TAT-CTMP 10 μM. Here is the method: In addition we looked at down stream effector GSK-3β using antibodies directed at GSK-3β and phospho GSK-3β.
Cells were subsequently harvested and % active caspase-3 was assessed by flow cytometry. Each experimental group represents an n=3. […] This experiment was repeated twice with multiple murine and human lines with similar results. (B and C) Antitumor effects of CTMP4 are the result of inhibition of Akt3 and its downstream effectors. […] Samples were treated for 1 hour prior to preparation of cell lysates. Immunoblots were subsequently prepared and stained with (B) anti-total AKT and phospho-AKT (Ser^473) and (C) anti-total GSK-3β and phospho GSK-3β.

No end group written: not given here.

As to `COc1ccc(C)cc1NC(=O)OC1C[C@H]2CCC[C@@H](C1)N2CCCCCCN` (some centres unmarked) [SV119], the apoptosis result is listed as “low, concentration-dependent level of apoptosis” in assay [1] and “low, concentration-dependent level of apoptosis” in assay [2].
As for “S2-BH3-in: control peptide: SW141 sigma-2 amino acid coupled to mutated inactive BH3 sequence EIWIAQEARRIGAEFNAYYAR (SEQ ID NO: 3) (also: SW141 sigma-2 ligand conjugated; listed as Homo sapiens)”, the apoptosis entry in assay [1] and in assay [2] was “no appreciable apoptosis” in each case. The tumor growth rate entry in assay [3] (400 μg) was “not”. The “Median Survival” value in assay [3] (n = 12 mice per group) was found to be 35 days.
“TAT-CTMP: TAT-fusion peptide of the active N-terminal domain peptide CTMP4 of CTMP (YGRKKRRQRRRLDPKLMKEEQMSQAQLFTRSFDDGL)”: the apoptosis entry in assay [4] and in assay [5] was “induced appreciable apoptosis” throughout. The “apoptosis (% active caspase-3)” value in the assay with AsPC-1 was “additive increase in apoptosis”. Moreover, the radiation-induced apoptosis result with pancreas cancer cells was “sensitizes pancreas cancer cells to radiation-induced apoptosis in a dose dependent fashion”. Further, the “active phospho-AKT (Ser-473)” value in the assay with Akt was “decreased active phospho-AKT”.
